Read-outs that look alike come from different tables or passages of the source.
Key:
[1] = molecular target: T1, ATPase (Bos taurus, UniProt P13621); assay: ATPase inhibition assay; format: biochemical
T1 construct: from tissue; host or cells: bovine sub-mitochondrial particles (SMPs)
Method: (§1) Representative compounds were tested for cytotoxicity in Ramos cells and inhibitory activity against ATPase. The Ramos cell death assay and ATPase inhibition assay were conducted as described in K. M. Johnson et al. Chemistry & Biology 2005, 12, 485-496.

[2] = tested on: Ramos cells; assay: Ramos cell death assay (cytotoxicity); format: cell-based; conditions: Homo sapiens
Method: as §1

Row | Structure (SMILES) | IC50 ([1]; read-out: ATPase IC50) [µM] | EC50 [2] [µM] | IC50 [1] [µM]
1 | CCn1c(=O)[nH]c2ccc(C3=NC(Cc4ccc5ccccc5c4)C(=O)N(C)c4ccc(Cl)cc43)cc21 (stereo not drawn) [Compound I-1, 7-Chloro-5-(3-ethyl-2-oxo-2,3-dihydro-1H-benzo[d]imidazol-5-yl)-1-methyl-3-(naphthalen-2-ylmethyl)-1H-benzo[e][1,4]diazepin-2(3H)-one] | < 7 | > 7 | 
2 | Cn1c(=O)[nH]c2ccc(C3=NC(Cc4ccccc4Cl)C(=O)Nc4ccc(Cl)cc43)cc21 (stereo not drawn) [Compound I-2, 7-Chloro-3-(2-chlorobenzyl)-5-(3-methyl-2-oxo-2,3-dihydro-1H-benzo[d]imidazol-5-yl)-1H-benzo[e][1,4]diazepin-2(3H)-one] |  | < 7 | < 7
3 | O=C(O)Cn1c(=O)[nH]c2ccc(C3=NC(Cc4ccccc4Cl)C(=O)Nc4ccc(Cl)cc43)cc21 (stereo not drawn) [Compound I-3, 2-(6-(7-Chloro-3-(2-chlorobenzyl)-2-oxo-2,3-dihydro-1H-benzo[e][1,4]diazepin-5-yl)-2-oxo-2,3-dihydro-1H-benzo[d]imidazol-1-yl)acetic acid] | > 7 | > 7 | 
4 | CNC(=O)Cn1c(=O)[nH]c2ccc(C3=NC(Cc4ccccc4Cl)C(=O)Nc4ccc(Cl)cc43)cc21 (stereo not drawn) [Compound I-4, 2-(6-(7-Chloro-3-(2-chlorobenzyl)-2-oxo-2,3-dihydro-1H-benzo[e][1,4]diazepin-5-yl)-2-oxo-2,3-dihydro-1H-benzo[d]imidazol-1-yl)-N-methylacetamide] | > 7 | > 7 | 
5 | O=C1Nc2ccc(Cl)cc2C(c2ccc3[nH]c(=O)n(CCCO)c3c2)=NC1Cc1ccccc1Cl (stereo not drawn) [Compound I-5, 7-Chloro-3-(2-chlorobenzyl)-5-(3-(3-hydroxypropyl)-2-oxo-2,3-dihydro-1H-benzo[d]imidazol-5-yl)-1H-benzo[e][1,4]diazepin-2(3H)-one] | < 7 | < 7 | 
6 | O=C1Nc2ccc(Cl)cc2C(c2ccc3[nH]c(=O)n(CCO)c3c2)=NC1Cc1ccccc1Cl (stereo not drawn) [Compound I-6, 7-Chloro-3-(2-chlorobenzyl)-5-(3-(2-hydroxyethyl)-2-oxo-2,3-dihydro-1H-benzo[d]imidazol-5-yl)-1H-benzo[e][1,4]diazepin-2(3H)-one] | > 7 | < 7 | 
7 | CN1C(=O)C(Cc2ccccc2Cl)N=C(c2ccc3[nH]c(=O)n(CCCO)c3c2)c2cc(Cl)ccc21 (stereo not drawn) [Compound I-7, 7-Chloro-3-(2-chlorobenzyl)-5-(3-(3-hydroxypropyl)-2-oxo-2,3-dihydro-1H-benzo[d]imidazol-5-yl)-1-methyl-1H-benzo[e][1,4]diazepin-2(3H)-one] | < 7 | > 7 | 
8 | Cn1c(=O)[nH]c2ccc(C3=NC(Cc4ccccc4Cl)C(=O)N(CCO)c4ccc(Cl)cc43)cc21 (stereo not drawn) [Compound I-8, 7-Chloro-3-(2-chlorobenzyl)-1-(2-hydroxyethyl)-5-(3-methyl-2-oxo-2,3-dihydro-1H-benzo[d]imidazol-5-yl)-1H-benzo[e][1,4]diazepin-2(3H)-one] | < 7 | > 7 | 
9 | COc1cc(Cl)cc2c1NC(=O)C(Cc1ccccc1Cl)N=C2c1ccc2[nH]c(=O)n(C)c2c1 (stereo not drawn) [Compound I-9, 7-Chloro-3-(2-chlorobenzyl)-9-methoxy-5-(3-methyl-2-oxo-2,3-dihydro-1H-benzo[d]imidazol-5-yl)-1H-benzo[e][1,4]diazepin-2(3H)-one] | < 7 | < 7 | 
10 | Cn1c(=O)[nH]c2ccc(C3=NC(Cc4ccccc4Cl)C(=O)Nc4c(O)cc(Cl)cc43)cc21 (stereo not drawn) [Compound I-10, 7-Chloro-3-(2-chlorobenzyl)-9-hydroxy-5-(3-methyl-2-oxo-2,3-dihydro-1H-benzo[d]imidazol-5-yl)-1H-benzo[e][1,4]diazepin-2(3H)-one] | < 7 | > 7 | 
11 | CN1C(=O)C(Cc2ccccc2Cl)N=C(c2ccc3[nH]c(=O)n(C)c3c2)c2cc(Cl)ccc21 (stereo not drawn) [Compound I-11, 7-Chloro-3-(2-chlorobenzyl)-1-methyl-5-(3-methyl-2-oxo-2,3-dihydro-1H-benzo[d]imidazol-5-yl)-1H-benzo[e][1,4]diazepin-2(3H)-one] | < 7 | > 7 | 
12 | Cn1c(=O)[nH]c2ccc(C3=NC(Cc4ccccc4Cl)C(=O)Nc4c(F)cc(Cl)cc43)cc21 (stereo not drawn) [Compound I-12, 7-Chloro-3-(2-chlorobenzyl)-9-fluoro-5-(3-methyl-2-oxo-2,3-dihydro-1H-benzo[d]imidazol-5-yl)-1H-benzo[e][1,4]diazepin-2(3H)-one] | < 7 | > 7 | 
13 | Cn1c(=O)[nH]c2ccc(C3=NC(Cc4ccc(Cl)cc4)C(=O)Nc4ccc(Cl)cc43)cc21 (stereo not drawn) [Compound I-13, 7-Chloro-3-(4-chlorobenzyl)-5-(3-methyl-2-oxo-2,3-dihydro-1H-benzo[d]imidazol-5-yl)-1H-benzo[e][1,4]diazepin-2(3H)-one] |  | < 7 | < 7
14 | CCn1c(=O)[nH]c2cc(C3=NC(Cc4ccc5ccccc5c4)C(=O)Nc4ccc(Cl)cc43)ccc21 (stereo not drawn) [Compound I-14] | < 7 | < 7 | 
15 | O=C1Nc2ccc(F)cc2C(c2ccc3[nH]c(=O)[nH]c3c2)=NC1Cc1ccccc1Cl (stereo not drawn) [II-1, 3-(2-Chlorobenzyl)-7-fluoro-5-(2-oxo-2,3-dihydro-1H-benzo[d]imidazol-5-yl)-1H-benzo[e][1,4]diazepin-2(3H)-one] |  | < 7 | > 7
16 | CCc1ccc(CC2N=C(c3ccc(O)c(CC(N)=O)c3)c3cc(Cl)ccc3NC2=O)cc1CC (stereo not drawn) [III-1, 2-(5-(7-Chloro-3-(3,4-diethylbenzyl)-2-oxo-2,3-dihydro-1H-benzo[e][1,4]diazepin-5-yl)-2-hydroxyphenyl)acetamide] | > 7 | < 7 | 
17 | Cc1cc(C2=NC(Cc3cc(F)ccc3Cl)C(=O)Nc3ccc(Cl)cc32)ccc1O (stereo not drawn) [III-2, 7-Chloro-3-(2-chloro-5-fluorobenzyl)-5-(4-hydroxy-3-methylphenyl)-1H-benzo[e][1,4]diazepin-2(3H)-one] |  | < 7 | < 7
18 | Cc1cc(C2=NC(Cc3ccc(Cl)cc3)C(=O)Nc3ccc(Cl)cc32)ccc1O (stereo not drawn) [III-3, 7-Chloro-3-(4-chlorobenzyl)-5-(4-hydroxy-3-methylphenyl)-1H-benzo[e][1,4]diazepin-2(3H)-one] |  | < 7 | < 7
19 | Cc1cc(C2=NC(Cc3ccc(F)cc3Cl)C(=O)Nc3ccc(Cl)cc32)ccc1O (stereo not drawn) [III-4, 7-Chloro-3-(2-chloro-4-fluorobenzyl)-5-(4-hydroxy-3-methylphenyl)-1H-benzo[e][1,4]diazepin-2(3H)-one] |  | < 7 | < 7
20 | Cc1cc(C2=NC(Cc3ccccc3C(F)(F)F)C(=O)Nc3ccc(Cl)cc32)ccc1O (stereo not drawn) [III-5, 7-Chloro-5-(4-hydroxy-3-methylphenyl)-3-(2-(trifluoromethyl)benzyl)-1H-benzo[e][1,4]diazepin-2(3H)-one] |  | < 7 | < 7
21 | Cc1cc(C2=NC(Cc3ccc(C(F)(F)F)cc3)C(=O)Nc3ccc(Cl)cc32)ccc1O (stereo not drawn) [III-6, 7-Chloro-5-(4-hydroxy-3-methylphenyl)-3-(4-(trifluoromethyl)benzyl)-1H-benzo[e][1,4]diazepin-2(3H)-one] |  | > 7 | > 7
22 | Cn1c(=O)[nH]c2ccc(C3=N[C@H](Cc4ccccc4Cl)C(=O)Nc4ccc(Cl)cc43)cc21 [IV-1, (R)-7-Chloro-3-(2-chlorobenzyl)-5-(3-methyl-2-oxo-2,3-dihydro-1H-benzo[d]imidazol-5-yl)-1H-benzo[e][1,4]diazepin-2(3H)-one] |  | < 7 | < 7
23 | Cn1c(=O)[nH]c2ccc(C3=N[C@@H](Cc4ccccc4Cl)C(=O)Nc4ccc(Cl)cc43)cc21 [IV-2, (S)-7-chloro-3-(2-chlorobenzyl)-5-(3-methyl-2-oxo-2,3-dihydro-1H-benzo[d]imidazol-5-yl)-1H-benzo[e][1,4]diazepin-2(3H)-one] |  | < 7 | < 7
24 | O=C1Nc2ccc(Cl)cc2C(c2ccc3[nH]c(=O)n(CCCO)c3c2)=N[C@@H]1Cc1ccccc1Cl [IV-3, (R)-7-chloro-3-(2-chlorobenzyl)-5-(3-(3-hydroxypropyl)-2-oxo-2,3-dihydro-1H-benzo[d]imidazol-5-yl)-1H-benzo[e][1,4]diazepin-2(3H)-one] | < 7 | < 7 | 
25 | O=C1Nc2ccc(Cl)cc2C(c2ccc3[nH]c(=O)n(CCCO)c3c2)=N[C@H]1Cc1ccccc1Cl [IV-4, (S)-7-Chloro-3-(2-chlorobenzyl)-5-(3-(3-hydroxypropyl)-2-oxo-2,3-dihydro-1H-benzo[d]imidazol-5-yl)-1H-benzo[e][1,4]diazepin-2(3H)-one] | < 7 | < 7 | 
26 | Cc1cc(C2=N[C@@H](Cc3ccccc3Cl)C(=O)Nc3ccc(Cl)cc32)ccc1O [IV-5, (S)-7-Chloro-3-(2-chlorobenzyl)-5-(4-hydroxy-3-methylphenyl)-1H-benzo[e][1,4]diazepin-2(3H)-one] |  | < 7 | < 7
27 | Cc1cc(C2=N[C@H](Cc3ccccc3Cl)C(=O)Nc3ccc(Cl)cc32)ccc1O [IV-6, (R)-7-Chloro-3-(2-chlorobenzyl)-5-(4-hydroxy-3-methylphenyl)-1H-benzo[e][1,4]diazepin-2(3H)-one] |  | < 7 | < 7

Reference: patent publication US8673897B2, “Benzodiazepinone compounds and methods of treatment using same” (The Regents of the University of Michigan, priority 2009, dated 2014)
